Results taken from ChEMBL document CHEMBL1201861, “Genomics of Drug Sensitity in Cancer screening data, Wellcome Trust Sanger Institute”.

Columns and labels:
Experiment in all cases: cells
Conditions in all cases: Homo sapiens
CAPAN-1 = format: functional, cell-based;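 further: growth suppression of CAPAN-1 cells, read out by a cell viability assay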
Description: SANGER: Inhibition of human CAPAN-1 cell growth in a cell viability assay.

SK-MES-1 = format: functional, cell-based;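 further: growth inhibition of human SK-MES-1 cells, read out with a cell viability assay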
Description: SANGER: Inhibition of human SK-MES-1 cell growth in a cell viability assay.

NCI-H2452 = format: functional, cell-based;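 further: growth inhibition of NCI-H2452 cells, read out with a cell viability assay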
Description: SANGER: Inhibition of human NCI-H2452 cell growth in a cell viability assay.

ChaGo-K-1 = format: functional, cell-based;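 further: growth inhibition of ChaGo-K-1 cells, read out with a cell viability assay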
Description: SANGER: Inhibition of human ChaGo-K-1 cell growth in a cell viability assay.

Huh-7 = format: functional, cell-based;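 further: HuH-7 cell growth inhibition, read out with a cell viability assay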
Description: SANGER: Inhibition of human HuH-7 cell growth in a cell viability assay.

NCI-H2087 = format: functional, cell-based;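 further: growth inhibition determined with a cell viability readout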
Description: SANGER: Inhibition of human NCI-H2087 cell growth in a cell viability assay.

NCI-H1755 = format: functional, cell-based;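 further: cell viability readout used to measure growth inhibition of NCI-H1755 cells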
Description: SANGER: Inhibition of human NCI-H1755 cell growth in a cell viability assay.

SW1783 = format: functional, cell-based;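 further: cell growth inhibition measured with a viability assay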
Description: SANGER: Inhibition of human SW1783 cell growth in a cell viability assay.

NCI-H1792 = format: functional, cell-based;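 further: growth inhibition of human NCI-H1792 cells, read out as cell viability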
Description: SANGER: Inhibition of human NCI-H1792 cell growth in a cell viability assay.

HPAF-II = format: functional, cell-based;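 further: growth inhibition of HPAF-II cells, read out with a cell viability assay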
Description: SANGER: Inhibition of human HPAF-II cell growth in a cell viability assay.

HCT-116 = format: functional, cell-based
Description: SANGER: Inhibition of human HCT-116 cell growth in a cell viability assay.

SK-MEL-28 = format: functional, cell-based;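 further: growth inhibition of human SK-MEL-28 cells, read out with a cell viability assay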
Description: SANGER: Inhibition of human SK-MEL-28 cell growth in a cell viability assay.

SK-LU-1 = format: functional, cell-based;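 further: cell viability assay measuring growth inhibition of human SK-LU-1 cells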
Description: SANGER: Inhibition of human SK-LU-1 cell growth in a cell viability assay.

HO-1-N-1 = format: functional, cell-based;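 further: growth inhibition of human HO-1-N-1 cells, read out with a cell viability assay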
Description: SANGER: Inhibition of human HO-1-N-1 cell growth in a cell viability assay.

U2OS = format: functional, cell-based, U-2-OS;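 further: growth inhibition of human U-2-OS cells, determined with a cell viability assay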
Description: SANGER: Inhibition of human U-2-OS cell growth in a cell viability assay.

NCI-H1651 = format: functional, cell-based;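 further: Read-out is a cell viability assay, with IC50 expressing inhibition of NCI-H1651 cell growth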
Description: SANGER: Inhibition of human NCI-H1651 cell growth in a cell viability assay.

HGC-27 = format: functional, cell-based;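 further: growth inhibition of human HGC-27 cells, read out in a cell viability assay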
Description: SANGER: Inhibition of human HGC-27 cell growth in a cell viability assay.

MKN-45 = format: functional, cell-based;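 further: growth inhibition of human MKN-45 cells, measured with a cell viability assay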
Description: SANGER: Inhibition of human MKN45 cell growth in a cell viability assay.

BEN = format: functional, cell-based;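 further: growth inhibition of the BEN cell line, read out with a cell viability assay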
Description: SANGER: Inhibition of human BEN cell growth in a cell viability assay.

SiHa = format: functional, cell-based;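 further: Viability-based readout of growth inhibition in SiHa cells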
Description: SANGER: Inhibition of human SiHa cell growth in a cell viability assay.

G-402 = format: functional, cell-based
Description: SANGER: Inhibition of human G-402 cell growth in a cell viability assay.

KYSE-520 cell line = format: functional, cell-based;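 further: growth inhibition of human KYSE-520 cells, read out with a viability assay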
Description: SANGER: Inhibition of human KYSE-520 cell growth in a cell viability assay.

GP5d = format: functional, cell-based;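 further: growth inhibition of human GP5d cells, read out with a cell viability assay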
Description: SANGER: Inhibition of human GP5d cell growth in a cell viability assay.

H4 = format: functional, cell-based
Description: SANGER: Inhibition of human H4 cell growth in a cell viability assay.

LU-99A = format: functional, cell-based;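 further: growth inhibition of LU-99A cells, read out with a cell viability assay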
Description: SANGER: Inhibition of human LU-99A cell growth in a cell viability assay.

A-427 = format: functional, cell-based;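 further: growth inhibition of human A-427 cells, read out by a cell viability assay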
Description: SANGER: Inhibition of human A427 cell growth in a cell viability assay.

M14 = format: functional, cell-based;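 further: growth inhibition of M14 cells, read out with a cell viability assay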
Description: SANGER: Inhibition of human M14 cell growth in a cell viability assay.

SCC-9 = format: functional, cell-based;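 further: Read-out is a cell viability assay, with values giving inhibition of cell growth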
Description: SANGER: Inhibition of human SCC-9 cell growth in a cell viability assay.

NB12 = format: functional, cell-based;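 further: growth inhibition of human NB12 cells, read out by a cell viability assay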
Description: SANGER: Inhibition of human NB12 cell growth in a cell viability assay.

NCI-H1437 = format: functional, cell-based;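 further: growth inhibition of human NCI-H1437 cells, read out by a cell viability assay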
Description: SANGER: Inhibition of human NCI-H1437 cell growth in a cell viability assay.

RCM-1 = format: functional, cell-based;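 further: growth inhibition of the RCM-1 line, determined with a cell viability readout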
Description: SANGER: Inhibition of human RCM-1 cell growth in a cell viability assay.

D-542MG = format: functional, cell-based
Description: SANGER: Inhibition of human D-542MG cell growth in a cell viability assay.

ESS-1 = format: functional, cell-based;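 further: growth inhibition of human ESS-1 cells, read out by a cell viability assay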
Description: SANGER: Inhibition of human ESS-1 cell growth in a cell viability assay.

BXPC-3 = format: functional, cell-based;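 further: growth inhibition of human BxPC-3 cells, read out by a cell viability assay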
Description: SANGER: Inhibition of human BxPC-3 cell growth in a cell viability assay.

T98G = format: functional, cell-based;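 further: growth inhibition of T98G cells, read out by a cell viability assay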
Description: SANGER: Inhibition of human T98G cell growth in a cell viability assay.

NCI-H661 = format: functional, cell-based;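 further: cell viability assay read-out, IC50 being the concentration that inhibits growth of the cells by half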
Description: SANGER: Inhibition of human NCI-H661 cell growth in a cell viability assay.

NCI-H460 = format: functional, cell-based;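 further: cell viability assay scoring growth inhibition of human NCI-H460 cells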
Description: SANGER: Inhibition of human NCI-H460 cell growth in a cell viability assay.

GCT = format: functional, cell-based;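 further: GCT cell line proliferation inhibition, read out with a cell viability assay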
Description: SANGER: Inhibition of human GCT cell growth in a cell viability assay.

SKG-IIIa = format: functional, cell-based;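 further: cell growth inhibition, read out with a cell viability assay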
Description: SANGER: Inhibition of human SKG-IIIa cell growth in a cell viability assay.

HSC-2 = format: functional, cell-based;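 further: growth inhibition of human HSC-2 cells, read out by a cell viability assay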
Description: SANGER: Inhibition of human HSC-2 cell growth in a cell viability assay.

CAL-33 = format: functional, cell-based;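 further: growth inhibition of CAL-33 cells, read out with a cell viability assay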
Description: SANGER: Inhibition of human CAL-33 cell growth in a cell viability assay.

T84 = format: functional, cell-based;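 further: growth inhibition measured with a cell viability readout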
Description: SANGER: Inhibition of human T84 cell growth in a cell viability assay.

HT-1376 = format: functional, cell-based
Description: SANGER: Inhibition of human HT-1376 cell growth in a cell viability assay.

NCI-H28 = format: functional, cell-based;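 further: growth inhibition of human NCI-H28 cells, read out as cell viability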
Description: SANGER: Inhibition of human NCI-H28 cell growth in a cell viability assay.

KYSE-450 = format: functional, cell-based;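 further: cell growth inhibition measured by a viability assay in human KYSE-450 cells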
Description: SANGER: Inhibition of human KYSE-450 cell growth in a cell viability assay.

NCI-H2122 = format: functional, cell-based;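 further: growth inhibition of the cells, read out with a cell viability assay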
Description: SANGER: Inhibition of human NCI-H2122 cell growth in a cell viability assay.

MFE-280 = format: functional, cell-based;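 further: growth inhibition of MFE-280 cells, determined with a cell viability readout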
Description: SANGER: Inhibition of human MFE-280 cell growth in a cell viability assay.

HMV-2 cell line = format: functional, cell-based;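 further: growth inhibition of HMV-II cells, read out with a cell viability assay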
Description: SANGER: Inhibition of human HMV-II cell growth in a cell viability assay.

In the case of `Cc1ccc(-n2nc(C(C)(C)C)cc2NC(=O)Nc2ccc(OCCN3CCOCC3)c3ccccc23)cc1` [DORAMAPIMOD], the IC50 (CAPAN-1) is reported as greater than 10 µM, the IC50 (SK-MES-1) is reported as greater than 10 µM and the IC50 (NCI-H2452) is reported as greater than 10 µM. It also gave an IC50 (ChaGo-K-1) greater than 10 µM, an IC50 (Huh-7) greater than 10 µM and an IC50 (NCI-H2087) greater than 10 µM. For the same molecule, the IC50 (NCI-H1755) was greater than 10 µM, the IC50 (SW1783) was greater than 10 µM and the IC50 (NCI-H1792) was greater than 10 µM. For the same molecule, the IC50 (HPAF-II) was greater than 10 µM, the IC50 (HCT-116) was greater than 10 µM and the IC50 (SK-MEL-28) was greater than 10 µM. The IC50 (SK-LU-1) was greater than 10 µM, the IC50 (HO-1-N-1) was greater than 10 µM and the IC50 (U2OS) was greater than 10 µM. For the same molecule, the IC50 (NCI-H1651) was greater than 10 µM, the IC50 (HGC-27) was greater than 10 µM and the IC50 (MKN-45) was greater than 10 µM. The IC50 (BEN) was greater than 10 µM, the IC50 (SiHa) was greater than 10 µM and the IC50 (G-402) was greater than 10 µM. For the same molecule, the IC50 (KYSE-520 cell line) was greater than 10 µM, the IC50 (GP5d) was greater than 10 µM and the IC50 (H4) was greater than 10 µM. It also gave an IC50 (LU-99A) greater than 10 µM, an IC50 (A-427) greater than 10 µM and an IC50 (M14) greater than 10 µM. It also gave an IC50 (SCC-9) greater than 10 µM, an IC50 (NB12) greater than 10 µM and an IC50 (NCI-H1437) greater than 10 µM. The IC50 (RCM-1) was greater than 10 µM, the IC50 (D-542MG) was greater than 10 µM and the IC50 (ESS-1) was greater than 10 µM. It also gave an IC50 (BXPC-3) greater than 10 µM, an IC50 (T98G) greater than 10 µM and an IC50 (NCI-H661) greater than 10 µM. It also gave an IC50 (NCI-H460) greater than 10 µM, an IC50 (GCT) greater than 10 µM and an IC50 (SKG-IIIa) greater than 10 µM. It also gave an IC50 (HSC-2) greater than 10 µM, an IC50 (CAL-33) greater than 10 µM and an IC50 (T84) greater than 10 µM. It also gave an IC50 (HT-1376) greater than 10 µM, an IC50 (NCI-H28) greater than 10 µM and an IC50 (KYSE-450) greater than 10 µM. It also gave an IC50 (NCI-H2122) greater than 10 µM, an IC50 (MFE-280) greater than 10 µM and an IC50 (HMV-2 cell line) greater than 10 µM.
With `CN(NC(=O)CC(=O)NN(C)C(=S)c1ccccc1)C(=S)c1ccccc1` [ELESCLOMOL] the IC50 (CAPAN-1) was greater than 0.2 µM, the IC50 (SK-MES-1) was greater than 0.2 µM and the IC50 (NCI-H2452) was 0.0217 µM. The IC50 (ChaGo-K-1) was 0.0054 µM, the IC50 (Huh-7) was 0.0176 µM and the IC50 (NCI-H2087) was greater than 0.2 µM. The IC50 (NCI-H1755) was 0.0133 µM, the IC50 (SW1783) was 0.139 µM and the IC50 (NCI-H1792) was greater than 0.2 µM. The IC50 (HPAF-II) was 0.0383 µM, the IC50 (HCT-116) was 0.04 µM and the IC50 (SK-MEL-28) was 0.0797 µM. For the same molecule, the IC50 (SK-LU-1) was 0.0103 µM, the IC50 (HO-1-N-1) was 0.0245 µM and the IC50 (U2OS) was 0.0197 µM. The IC50 (NCI-H1651) was 0.0829 µM, the IC50 (HGC-27) was 0.00759 µM and the IC50 (MKN-45) was 0.0287 µM. The IC50 (BEN) was 0.116 µM, the IC50 (SiHa) was 0.0311 µM and the IC50 (G-402) was 0.0162 µM. It also gave an IC50 (KYSE-520 cell line) of 0.104 µM, an IC50 (GP5d) greater than 0.2 µM and an IC50 (H4) of 0.00725 µM. It also gave an IC50 (LU-99A) greater than 0.2 µM, an IC50 (A-427) of 0.00607 µM and an IC50 (M14) of 0.122 µM. For the same molecule, the IC50 (SCC-9) was 0.121 µM, the IC50 (NB12) was 0.048 µM and the IC50 (NCI-H1437) was 0.0877 µM. For the same molecule, the IC50 (RCM-1) was greater than 0.2 µM, the IC50 (D-542MG) was greater than 0.2 µM and the IC50 (ESS-1) was 0.102 µM. The IC50 (BXPC-3) was greater than 0.2 µM, the IC50 (T98G) was 0.0343 µM and the IC50 (NCI-H661) was 0.0125 µM. For the same molecule, the IC50 (NCI-H460) was greater than 0.2 µM, the IC50 (GCT) was 0.0234 µM and the IC50 (SKG-IIIa) was 0.0498 µM. For the same molecule, the IC50 (HSC-2) was 0.107 µM, the IC50 (CAL-33) was 0.0222 µM and the IC50 (T84) was greater than 0.2 µM. The IC50 (HT-1376) was greater than 0.2 µM, the IC50 (NCI-H28) was 0.0137 µM and the IC50 (KYSE-450) was 0.039 µM. The IC50 (NCI-H2122) was 0.13 µM, the IC50 (MFE-280) was greater than 0.2 µM and the IC50 (HMV-2 cell line) was greater than 0.2 µM.
